Reference: patent publication US20230302014A1, “USES OF GLUCOCORTICOID RECEPTOR (GR) ANTAGONIST AND ANDROGEN RECEPTOR (AR) DEGRADER COMBINATIONS” (ORIC Pharmaceuticals, Inc., priority 2020, published 2023)

Assays:
[1] = tested on: AR target genes KLK3, KLK4, NKX3.1, FKBP5; assay: Target gene assay (RT-qPCR, R1881-induced AR target genes); type: cell-based, Human; details: 100 pM R1881, 24 hours post treatment
Experimental: (§1) 10,000 LNCaP and CWR22PC cells per well were plated in triplicate in poly-lysine coated 96-well plates (ThermoFisher#152039) in 200 µL of RPMI-1640 media supplemented with 10% charcoal-stripped serum. 24 hours later, cells were treated with 100 pM of R1881 and 8-point dilution for enzalutamide, ARD1 or ARD2 with concentrations ranging from 1 µM to 0.46 nM. After incubation at 37° C. for 24 hours, media was removed, and cells were washed once with PBS. 55 µL per well of iScript RT-qPCR sample preparation reagent (Bio-Rad #1708898) was added and incubated for 2 minutes before lysate was collected for mRNA analysis. RT-qPCR was set up in triplicate using 3 µL of lysate plus 7 µL of pre-mixed SensiFAST™ SYBR No-ROX One-Step Kit reagents (BIOLINE, Cat# BIO-98005) per reaction. The RT-qPCR reactions were run on a Bio-Rad CFX384 Real-Time PCR System and data was plotted with GraphPad Prism 8 software.
as §1, with “15,000” for “10,000”, “24 hours later, cells were treated with 100 pM of R1881 and 8-point dilution for enzalutamide, ARD1 or ARD2 with concentrations ranging from 1 µM to 0.46 nM.” left out, “75” for “55”

[2] = tested on: AR and GR target genes in CWR22PC cells; assay: End of study (EOS) biomarker analysis by RT-qPCR; type: cell-based, Human; details: CSS media, + 0.5 µM compound 1
Experimental: (§2) CWR22PC cells were seeded at a density of 2 × 10^5 cells/well in 6-well plates (Corning# 3516) in 2 mL of RPMI-1640 media supplemented with 10% charcoal-stripped serum (CSS) in duplicate. 24 hours later, cells were treated with 100 pM R1881, 30 nM dexamethasone, 0.5 µM compound 1, 1 µM of ARD1 or ARD2, or combinations thereof as indicated. Fresh media containing the indicated treatment was replaced every 5-7 days. Cell supernatant was collected on Day 12 and 19 and stored at -80° C. for PSA AlphaLISA assay. Cell images were taken on Day 12 and 19 using Leica DMi8 microscope (LEICA MICROSYSTEMS, INC. IL) with a 10X magnification. Cells were then trypsinized and cell numbers in each treatment group were counted three times, average counts were plotted with GraphPad Prism 8. Cell pellets were washed once with 1XPBS and then lysed in 600 µL RLT RNA lysis buffer and stored at -80° C. RNA was extracted for end of study (EOS) biomarker analysis for which the detailed procedures are described in the section RNA Extraction and RT-qPCR analysis.
(§3) Adherent cells or cell pellets harvested for mRNA analysis were first washed once with PBS and then resuspended in 600 µL of RLT lysis buffer (Qiagen Inc.) supplemented with 1% of betamercaptoethanol. RNA was extracted by QIAcube using the RNeasy Mini QIAcube kit (Qiagen#74116) according to manufacturer’s instructions. The extracted RNA samples were then quantified using a Nanodrop 8000 Spectrophotometer. RT-qPCR reactions were set up in triplicate using 3 µL of 3 ng/ µL of RNA in 7 µL of pre-mixed SensiFAST™ SYBR No-ROX One-Step Kit reagents (BIOLINE# BIO-98005). The RT-qPCR reactions were run on a Bio-Rad CFX384 Real-Time PCR System and data was plotted with GraphPad Prism 8 software.
CWR22PC cells were seeded at a density of 2 × 10^5 cells/well in 6-well plates (Corning# 3516) in 2 mL of RPMI-1640 media supplemented with 10% charcoal-stripped serum (CSS) in duplicate. […] Cells were then trypsinized and cell numbers in each treatment group were counted three times, average counts were plotted with GraphPad Prism 8. […]

[3] = tested on: AR and/or GR target genes KLK4, KLF9, FKBP5, PER1, SGK1; assay: Biomarker analysis by RT-qPCR, 48 hours; type: cell-based, Human; details: CWR22PC and 22Rv1 cells
Experimental: CWR22PC and 22RV1 cells were seeded at a density of 2 × 10^5 cells/well in 6-well plates in 2 mL of RPMI-1640 media supplemented with 10% charcoal-stripped serum (CSS). Cells were treated with 100 pM R1881, 30 nM dexamethasone, 0.5 µM compound 1, 1 µM of ARD1 or ARD2, or combinations thereof as indicated and maintained at 37° C. 48 hours later, media was removed, and cells were washed once with PBS and then harvested for mRNA analysis.
as §3
CWR22PC and 22Rv1 cells were seeded at a density of 2 × 10^5 cells/well in 6-well plates in 2 mL of RPMI-1640 media supplemented with 10% charcoal-stripped serum (CSS). […] 48 hours later, media was removed, and cells were washed once with PBS and then harvested for mRNA analysis.

CWR22PC cells = assay: Cell growth (cell number) of prostate cancer cells under long-term treatment; type: cell-based, Human; details: CSS media; for R1881-induced cell growth: CWR22PC, + 0.5 µM compound 1
Experimental: as §2
The impact of ARD1 and ARD2 on the growth of prostate cancer cells was explored. CWR22PC cells were plated in charcoal-stripped serum (CSS) media and treated with vehicle or 0.1 nM R1881 (synthetic AR ligand) without or with 1 µM of ARD1 or ARD2. Media with treatments were replaced every 5-7 days and cells were maintained at 37° C. for 22 days. Supernatant of each group was harvested at day 22 to measure PSA secretion by PSA AlphaLISA assays.
as §2, with “24 hours later, cells were treated with 100 pM R1881, 30 nM dexamethasone, 0.5 µM compound 1, 1 µM of ARD1 or ARD2, or combinations thereof as indicated.” left out, “15” for “12”, “21” for “19”, “assay.” for “assay. Cell images were taken on Day 12 and 19 using Leica DMi8 microscope (LEICA MICROSYSTEMS, INC. IL) with a 10X magnification.”

PSA = PSA AlphaLISA assay of cell supernatant (PSA secretion); type: cell-based, Human; details: CSS media; for R1881-induced PSA secretion: CWR22PC, + 0.5 µM compound 1
GR = target: T1, GR (Homo sapiens, UniProt P04150); details: prostate cancer models with GR upregulated, in response to glucocorticoids; Zhou et al. 2019; cited from earlier work
T1 sequence (P04150 1-777): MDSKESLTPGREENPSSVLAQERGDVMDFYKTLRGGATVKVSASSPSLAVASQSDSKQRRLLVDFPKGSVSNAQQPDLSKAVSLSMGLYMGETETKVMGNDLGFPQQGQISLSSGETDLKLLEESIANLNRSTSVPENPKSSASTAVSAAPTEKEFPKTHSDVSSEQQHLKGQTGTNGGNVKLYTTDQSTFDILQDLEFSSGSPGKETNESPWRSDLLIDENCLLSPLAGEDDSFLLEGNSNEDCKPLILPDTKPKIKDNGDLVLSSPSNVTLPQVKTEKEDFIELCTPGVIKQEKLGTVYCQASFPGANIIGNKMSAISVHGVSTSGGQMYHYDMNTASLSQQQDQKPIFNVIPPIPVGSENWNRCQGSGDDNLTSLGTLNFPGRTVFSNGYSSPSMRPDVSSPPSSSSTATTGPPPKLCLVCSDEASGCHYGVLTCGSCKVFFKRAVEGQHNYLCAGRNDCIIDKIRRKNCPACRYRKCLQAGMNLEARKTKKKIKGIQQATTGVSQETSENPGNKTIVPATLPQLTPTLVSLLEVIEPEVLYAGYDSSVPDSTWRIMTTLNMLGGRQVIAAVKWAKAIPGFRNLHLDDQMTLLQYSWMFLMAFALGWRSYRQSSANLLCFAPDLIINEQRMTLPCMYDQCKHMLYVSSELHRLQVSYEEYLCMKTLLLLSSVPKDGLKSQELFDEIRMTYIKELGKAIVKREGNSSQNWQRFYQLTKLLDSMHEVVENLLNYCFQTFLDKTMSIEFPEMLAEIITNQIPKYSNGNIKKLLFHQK

[4] = 19 days, 0.1 nM R1881 + 1 µM ARD1 or ARD2, + 30 nM dexamethasone
[5] = 21 days, 0.1 nM R1881 + 1 µM ARV-110, + 30 nM dexamethasone

CNC(=O)c1ccc(N2C(=S)N(c3ccc(C#N)c(C(F)(F)F)c3)C(=O)C2(C)C)cc1F [Enzalutamide, enzalutamide]
AR target gene FKBP5 induced by R1881 ([1]; CWR22PC cells): inhibit
AR target gene KLK3 induced by R1881 ([1]; CWR22PC cells): inhibit
AR target gene KLK4 induced by R1881 ([1]; CWR22PC cells): inhibit
AR target gene NKX3.1 induced by R1881 ([1]; CWR22PC cells): inhibit
AR target gene FKBP5 induced by R1881 ([1]; LNCaP cells): inhibit
AR target gene KLK3 induced by R1881 ([1]; LNCaP cells): inhibit
AR target gene KLK4 induced by R1881 ([1]; LNCaP cells): inhibit
AR target gene NKX3.1 induced by R1881 ([1]; LNCaP cells): inhibit

CC(C)N(C)c1ccc([C@H]2C[C@@]3(C)[C@@H](CC[C@@]3(O)C#CC(C)(C)C)[C@@H]3CCC4=CC(=O)CC[C@@H]4[C@H]32)cc1 [Compound 1]
R1881-induced target gene (biomarker) expression ([2]; day 19 EOS, 0.1 nM R1881 + 1 µM ARD1 or ARD2, + 30 nM dexamethasone): fully reverses
R1881-induced target gene (biomarker) expression ([2]; day 21 EOS, 0.1 nM R1881 + 1 µM ARV-110, + 30 nM dexamethasone): fully reverses
DEX-induced GR and AR target gene expression ([3]; 0.5 µM compound 1 in the presence of 1 µM ARD1 or ARD2, 0.1 nM R1881, 30 nM DEX): fully reverses
DEX-induced GR and AR target gene expression ([3]; 0.5 µM compound 1 in the presence of 1 µM ARV-110, 0.1 nM R1881, 30 nM DEX): fully reverses
R1881-induced cell growth (CWR22PC cells; [4]): fully reverses
R1881-induced cell growth (CWR22PC cells; [5]): fully reverses
R1881-induced PSA secretion (PSA; [4]): fully reverses
R1881-induced PSA secretion (PSA; [5]): fully reverses
sensitivity to enzalutamide treatment (GR): restores sensitivity to enzalutamide treatment

C[C@]1(O)CC[C@H]2[C@@H]3CCC4=CC(=O)CCC4=C3C=C[C@@]21C [Compound R1881]
CWR22PC cell growth (CWR22PC cells; 0.1 nM R1881 without or with 1 µM ARD1 or ARD2, 22 days): promotes
PSA secretion (PSA; CWR22PC cells, 0.1 nM R1881 without or with 1 µM ARD1 or ARD2, day 22): promotes
